Source: patent publication US10722480B2, “Agent for controlling cells constituting cancer microenvironment or inflammatory microenvironment” (The University of Tokyo, priority 2015, dated 2020)

Experiments:
[1] = target: T1, Full-length FROUNT protein (Homo sapiens, UniProt Q9BW27); test: Surface plasmon resonance binding to FROUNT; conditions: SPR
T1 construct: made in house
T1 sequence (Q9BW27 1-656): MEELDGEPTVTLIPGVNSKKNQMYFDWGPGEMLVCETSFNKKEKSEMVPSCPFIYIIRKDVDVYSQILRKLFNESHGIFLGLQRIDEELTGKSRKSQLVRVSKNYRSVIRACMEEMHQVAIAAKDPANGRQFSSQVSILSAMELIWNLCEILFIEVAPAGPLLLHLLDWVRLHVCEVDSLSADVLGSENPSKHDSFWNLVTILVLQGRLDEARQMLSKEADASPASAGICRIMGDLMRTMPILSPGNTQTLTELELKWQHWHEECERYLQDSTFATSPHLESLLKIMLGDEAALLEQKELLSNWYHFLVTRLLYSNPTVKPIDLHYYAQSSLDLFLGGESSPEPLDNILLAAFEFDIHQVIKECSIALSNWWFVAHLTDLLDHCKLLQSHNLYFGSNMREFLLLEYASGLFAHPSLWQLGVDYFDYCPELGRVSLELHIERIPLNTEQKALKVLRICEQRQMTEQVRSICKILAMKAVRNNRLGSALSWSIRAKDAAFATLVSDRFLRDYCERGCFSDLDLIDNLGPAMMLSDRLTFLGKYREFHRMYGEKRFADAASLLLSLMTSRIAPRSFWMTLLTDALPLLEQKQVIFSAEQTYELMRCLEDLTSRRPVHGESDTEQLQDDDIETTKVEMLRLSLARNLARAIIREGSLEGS
Method: Interactions between FROUNT and compounds in the library were analyzed by surface plasmon resonance (SPR) using Biacore […] (GE Healthcare). Full-length FROUNT protein (SEQ ID NO:2) (Esaki, K. et al. Protein Expr Purif 77, 86-91, (2011)) was immobilized on a CM5 sensor chip. Solutions of disulfiram prepared by serial dilution in HBS-EP buffer containing 2% DMSO (GE Healthcare) were applied to the sensor chip at a flow rate of 30 μL/min. The resonance unit (RU) was measured during the process from the binding to the washing to analyze the binding dynamics. Biacore T100 evaluation software was used to carry out solvent correction for DMSO.

[2] = test system: infiltrating cells in the peritoneum (macrophages, neutrophils); test: In vivo chemotaxis assay (thioglycolate peritonitis); set-up: species or system mouse; conditions: wild-type mice
Method: Peritonitis was induced by intraperitoneal administration of 2 mL of 4% thioglycolate medium (Difco) to each of FNT^flox/flox mice and FNT-cKO mice. Infiltrating cells in the peritoneum were collected by injecting 5 mL of ice-cold PBS into the abdominal cavity and giving a gentle massage. The collected cells was washed with PBS containing 0.1% FBS, and then subjected to flow cytometry analysis to investigate the cell number and the cell populations. The same treatment as in the above-described section 8 was carried out on wild-type mice to induce peritonitis, and infiltrating cells in the peritoneum were collected. After washing the collected cells, flow cytometry analysis was carried out to investigate the cell number and the cell populations. For evaluation of disulfiram, disulfiram was dissolved in DMSO, and then diluted in 2% Tween 80-containing physiological saline to each concentration shown in the figure. Each resulting disulfiram solution was administered to mice 1 day before and 30 minutes before the administration of thioglycolate.

[3] = test system: LLC (Lewis lung cancer) cells; test: Subcutaneous tumor growth model (LLC); assay type: in vivo, mouse; conditions: 0.8 mg/g in feed, oral, Day 4 to Day 11, vs control group
Method: For evaluation of the subcutaneous tumor growth, LLC (Lewis lung cancer) cells (5×10^5) were suspended in 50 μL of PBS, and subcutaneously administered to the right abdomen of each mouse. The tumor size was measured using a caliper twice a week. The tumor volume was calculated according to the following equation. Tumor volume=(tumor shorter diameter)^2×tumor longer diameter/2 In order to investigate the antitumor effect in the subcutaneous tumor growth model, disulfiram was added in an amount of 0.8 mg/g to CE-2 powder feed (CLEA Japan, Inc.) supplemented with 5% sucrose (Wako), and the mice were fed therewith every day during the period from Day 4 to Day 11 post tumor inoculation. The control group was fed with a feed supplemented with the same amount of sucrose.

[4] = test system: B16F10 melanoma cells; test: LDH cytotoxicity assay, B16F10 melanoma cells; assay type: cell-based; conditions: LDH release, 72 hours
Method: The cytotoxicity of inhibitors was tested by using LDH Cytotoxicity Detection Kit (TaKaRa) according to the manufacturer's instructions. Briefly, tumor cells were cultured in the presence or absence of an agent (disulfiram or 5FU) for 72 hours, and the culture supernatant was then collected and tested for the concentration of lactate dehydrogenase released from damaged cells. For measurement of cell proliferation, cells were incubated in a plate well together with an inhibitor for 48 hours. During the last 30 minutes, WST-1 (Dojindo Laboratories) was added to the culture liquid, and the absorbance of each well was measured at 450 nm versus 650 nm reference using EnVision (PerkinElmer) to detect the formazan level.

[5] = target: T2, CCR2 (Homo sapiens, UniProt P41597); test: Surface plasmon resonance binding to CCR2; conditions: SPR
T2 sequence (P41597 1-360 isoform P41597-2): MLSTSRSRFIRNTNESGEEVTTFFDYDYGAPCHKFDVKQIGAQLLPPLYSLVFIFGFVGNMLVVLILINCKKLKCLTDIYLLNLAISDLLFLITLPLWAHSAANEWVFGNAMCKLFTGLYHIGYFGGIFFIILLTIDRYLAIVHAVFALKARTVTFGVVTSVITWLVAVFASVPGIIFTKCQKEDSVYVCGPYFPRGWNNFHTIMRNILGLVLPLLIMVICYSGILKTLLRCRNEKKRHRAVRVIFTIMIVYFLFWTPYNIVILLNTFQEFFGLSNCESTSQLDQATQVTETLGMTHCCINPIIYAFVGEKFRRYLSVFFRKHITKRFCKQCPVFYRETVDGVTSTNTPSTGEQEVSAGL

[6] = test system: B16 melanoma cells; test: Combined use with anti-PD-1 antibody, B16 tumor-bearing model; assay type: in vivo, mouse; conditions: DSF in feed from Day 4, anti-PD-1 antibody 0.2 mg i.p. x4
Method: To provide an example of combined use of an anticancer drug and disulfiram (DSF), the effect of combined use of an anti-PD-1 antibody, which is an anticancer drug targeting an immune checkpoint molecule, and DSF was studied using an LLC tumor-bearing model and a B16 tumor-bearing model. The B16 tumor-bearing model was prepared by transplanting 5×10^5 B16 melanoma cells to the right abdomen of each of wild-type C57BL/6 mice. Preparation of the LLC tumor-bearing model was carried out in the same manner as in the above-described section 3. A feed supplemented with DSF was provided in the same manner as in the above-described section 3.
The day of the transplantation of the tumor cells to the mice was defined as Day 0. From Day 4, the mice were fed with the feed supplemented with DSF or a control feed every day during the experimental period. An anti-PD-1 antibody (J43, manufactured by BioXcell) was intraperitoneally administered once at a dose of 0.2 mg on each of Day 5, Day 8, Day 14, and Day 18 (four times in total). To provide a control for the antibody administration, PBS was intraperitoneally administered. The tumor size was measured using a caliper twice a week, and the tumor volume was calculated.

binding to FROUNT protein [1]: directly bound | binding to CCR2 [5]: did not bind
Compound: CCN(CC)C(=S)SSC(=S)N(CC)CC [DSF, disulfiram]
infiltration of macrophages into peritoneal inflammatory sites [2]: reduced | infiltration of neutrophils into peritoneal inflammatory sites [2]: not influenced | tumor volume [3]: significantly smaller | cytotoxic activity on B16F10 melanoma cells [4]: did not show any action | inhibitory effect on cancer hyperplasia (tumor volume) [6]: not observed at a significant level
